Patent publication US10987430B2, “Di-substituted maleic amide linker for antibody drug conjugating and preparation method and use thereof” (Mabwell (shanghai) Bioscience Co., Ltd., priority 2016, dated 2021)

How the values were obtained:
[1] = system: human gastric cancer NCI-N87 subcutaneous xenografts; assay: In vivo anti-tumor efficacy assay (FIG. 24), IV on D 0; set-up: species or system BALB/cA-nude mice; conditions: 1.0 mg/kg
Procedure: (§1) 6-7 weeks BALB/cA-nude mice (♀) were purchased from Shanghai Lingchang Biotechnology Co., Ltd. Production license number: SCXK (Shanghai) 2013-0018; animal certificate number: 2013001815683; and feeding environment: SPF level.
Those nude mice were subcutaneously inoculated with 6×10^6 human gastric cancer NCI-N87 cells, and after the tumors grew to 100-250 mm^3, the mice were divided into groups (D0) according to tumor volumes. The mice were injected intravenously (IV), each with an administration volume 10 mL/kg; mice in vehicle control group was administered with the same volume of “vehicle” (physiological saline containing 0.1% BSA). Tumor volume was measured 2 times a week, the mice were weighed, and corresponding data were recorded.
The purpose of this experiment was to investigate the effect of the drugs on tumor growth using specific indicators T/C % or tumor growth inhibition value (TGI) (%).
Tumor diameters were measured twice a week with a vernier caliper. The tumor volume (V) was calculated as: V=½×a×b^2; in which a and b represent length and width respectively. T/C(%)=(T−T0)/(C−C0)×100, in which T and C represent the tumor volumes at the end of the experiment; T0 and C0 represent the tumor volumes at the beginning of the experiment. […]

[2] = system: human gastric cancer NCI-N87 subcutaneous xenografts; assay: In vivo anti-tumor efficacy assay (FIG. 10), IV once a week, 2 times in total; set-up: species or system BALB/cA-nude mice; conditions: 1 mg/kg
Procedure: as §1
Those nude mice were subcutaneously inoculated with human gastric cancer NCI-N87 cells, and then randomly divided into groups (D0) when tumors grew to 100-250 mm^3. Tumor volume was measured 2-3 times a week, the mice were weighed, and corresponding data were recorded. The tumor volume (V) was calculated as: V=½×a×b^2; in which a and b represent length and width respectively. T/C (%)=(T−T0)/(C−C0)×100, in which T and C represent the tumor volumes at the end of the experiment; T0 and C0 represent the tumor volumes at the beginning of the experiment.

[3] = system: SK-BR-3 human breast cancer cells; assay: SRB cell proliferation assay in vitro; format: cell-based; conditions: SK-BR-3, Her2 highly expressing, 5 days, FIG. 4
From the text: (§2) Sulforhodamine B (SRB)-based colorimetric method was used in this Example to evaluate the anti-proliferative effect of the drugs. SRB is a pink anionic dye which is easily soluble in water and can specifically bind to basic amino acids making up proteins in cells under an acidic condition. It provides an absorption peak at 510 nm, and the absorbance is linearly and positively correlated with the amount of cells. In this regard, the method can be used in a quantitative detection of cell number.
BT-474, SK-BR-3 and NCI-N87 cells in RPMI 1640 medium containing 10% fetal bovine serum, SKOV-3, Du-145, Panc-1, MCF-7 and MDA-MB-231 cells in DMEM containing 10% fetal bovine serum, and MDA-MB-468 cells in DMEM/F12 containing 10% fetal bovine serum were incubated to logarithmic growth phase in a 5% CO2 incubator at 37° C. The above cells in the logarithmic growth phase were inoculated into 96-well plates at a density of 2×10^3 to 9×10^3 cells per well, 100 μL per well, cultured for 24 hours and then different concentrations of drugs were added thereto for 5 days. Specifically, each drug was prepared into nine concentrations by diluting in 3, 4 or 5-fold, each concentration was set in duplicate wells, and corresponding concentration of vehicle control wells and medium control wells without cells were set too. […]

[4] = system: NCI-N87 human gastric cancer cells; assay: SRB cell proliferation assay in vitro; format: cell-based
From the text: as §2
(§3) BT-474, SK-BR-3 and NCI-N87 cells in RPMI 1640 medium containing 10% fetal bovine serum, SKOV-3, Du-145, Panc-1, MCF-7 and MDA-MB-231 cells in DMEM containing 10% fetal bovine serum, and MDA-MB-468 cells in DMEM/F12 containing 10% fetal bovine serum were incubated to logarithmic growth phase in a 5% CO2 incubator at 37° C. The above cells in the logarithmic growth phase were inoculated into 96-well plates at a density of 2×10^3 to 9×10^3 cells per well, 100 μL per well, cultured for 24 hours and then different concentrations of drugs were added thereto for 5 days. Specifically, each drug was prepared into nine concentrations by diluting in 3, 4 or 5-fold, each concentration was set in duplicate wells, and corresponding concentration of vehicle control wells and medium control wells without cells were set too. At the end of drug action, culture solutions were decanted, and 100 μl of a pre-cooled trichloroacetic acid solution (30%, w/v) at 4° C. was added to each well and the cells were fixed at 4° C. for 1 hour. Subsequently, the cells were washed with deionized water for 5 times, and dried at room temperature, and then 100 μL of 0.4% (w/v) SRB dye (Sigma, prepared with 1% glacial acetic acid) was added to each well. After being incubated and stained at room temperature for 30 minutes, the cells were washed with 1% glacial acetic acid for 4 times to remove unbound dyes, and then dried at room temperature. Afterwards, 100 μL of 10 mM Tris solution was added per well.
as §2, with “SRB is a pink anionic dye which is easily soluble in water and can specifically bind to basic amino acids making up proteins in cells under an acidic condition.” left out
(§4) The above cells in the logarithmic growth phase were inoculated into 96-well plates at a density of 2×10^3 to 9×10^3 cells per well, 100 μL per well, cultured for 24 hours and then different concentrations of drugs were added thereto for 5 days. […] At the end of drug action, culture solutions were decanted, and 100 μl of a pre-cooled trichloroacetic acid solution (30%, w/v) at 4° C. was added to each well and the cells were fixed at 4° C. for 1 hour.

[5] = system: BT-474 human breast cancer cells; assay: SRB cell proliferation assay in vitro; format: cell-based
From the text: as §2, §3
as §2, with “SRB is a pink anionic dye which is easily soluble in water and can specifically bind to basic amino acids making up proteins in cells under an acidic condition.” left out
as §4

[6] = system: 18 human tumor cell lines; conditions: cited from earlier work

For “P-mcVC-MMAE: comparison Pertuzumab conjugate; traditional mcVC-PAB conjugate with MMAE”, the “% T/C D 23” value [1] was 17%, the “% TGI D 23” value [1] was 83% and the “Mean tumor volume (mm3) D 23” value [1] was 194.6 mm3. For the same substance, the Partial regression ([1]; number of mice, 6 per group) was 3, the complete regression ([1]; number of mice, 6 per group) was 0 and the “mice with tumors partially regressed” value [2] was 2/6. The tumor inhibition rate [2] was 94%, the “inhibition of tumor cell proliferation” value [3] was “significant inhibition of tumor cell proliferation” and the “inhibition of tumor cell proliferation” value ([4]; NCI-N87, Her2 highly expressing, 5 days, FIG. 6, FIG. 9-1) was “significant inhibition of tumor cell proliferation”. For the same substance, the “inhibition of tumor cell proliferation” value ([5]; BT-474, Her2 highly expressing, 5 days, FIG. 5) was “significant inhibition of tumor cell proliferation”.
Work on “Pertuzumab: HER2 antibody, naked antibody” yielded an IC50 ([4]; NCI-N87, 120 h) of over 10 µg/mL and an IC50 ([5]; BT-474, 120 h) of over 10 µg/mL.
For Taltobulin, the IC50 [6] is listed as 2.5 nM.
